Where two headings read alike, the source gives them in different places. Each block holds one compound with its values, some of them ahead of it.
What was measured:
hmGlu1 = tested on: hmGlu1; set-up: method as in PMID 30116027, PMID 34731619, PMID 35643819, PMID 25137254, PMID 11606768; details: Figure 1; read-out: hmGlu1 PAM EC50; cited from earlier work
mGlu4 = tested on: mGlu4; set-up: method as in PMID 30116027, PMID 34731619, PMID 35643819, PMID 25137254, PMID 11606768; details: Figure 1; cited from earlier work
dog mGlu1 = dog mGlu1 (Canis lupus familiaris, UniProt A0A8I3NTE8); assay: mGlu1 PAM assay, dog receptor; assay type: cell-based
IV dog PK = assay type: in vivo; details: male, beagle, plasma, 0.5 mg/kg IV; for C0: iv, 0.5 mg/kg
Experimental: (§1) Deeper profiling began with IV dog PK (0.5 mg/kg, n = 3 male beagles). […] Was this a mechanism-based toxicity in dog? Could there be dog-specific pharmacology of mGlu1 activation? Were these AEs derived from the 19d chemotype? Could a mGlu1/mGlu5 heterodimer be responsible for the observed AEs? […] In an attempt to address the chemotype question, we evaluated PAM 4 (VU6004909),[8] an early generation rodent in vivo tool compound, for the first time in dog PK. […] of the study with 19d, PAM 4 produced no AEs in dog. […] Therefore, more molecular pharmacology and PK studies as well as additional chemically distinct mGlu1 PAM chemotypes are required to understand the AEs elicited by an mGlu1 PAM in dogs, an otherwise very promising target for the treatment of schizophrenia.

male beagles = assay: adverse events in dog PK; assay type: in vivo; details: 0.5 mg/kg IV
Experimental: as §1

[1] = plasma protein binding, equilibrium dialysis; assay type: in vitro ADME, human; details: fraction unbound
Experimental: (§2) The protein binding of each compound was determined in plasma via equilibrium dialysis employing RED Plates (ThermoFisher Scientific, Rochester, NY). Plasma was added to the 96 well plate containing test compound and mixed thoroughly for a final concentration of 5 μM. Subsequently, an aliquot of the plasma-compound mixture was transferred to the cis chamber (red) of the RED plate, with an phosphate buffer (25 mM, pH 7.4) in the trans chamber. The RED plate was sealed and incubated for 4 h at 37 °C with shaking. At completion, aliquots from each chamber were diluted 1:1 with either plasma (cis) or buffer (trans) and transferred to a new 96 well plate, at which time ice-cold acetonitrile containing internal standard (50 ng/mL carbamazepine) (2 volumes) was added to extract the matrices. The plate was centrifuged (3000 rcf, 10 min) and supernatants transferred and diluted 1:1 (supernatant: water) into a new 96 well plate, which was then sealed in preparation for LC/MS/MS analysis. Each compound was assayed in triplicate within the same 96-well plate. Fraction unbound was determined using the following equation [drawing 1]

[2] = intrinsic clearance, predicted hepatic clearance; assay type: in vitro ADME, human; details: in vitro predicted hepatic clearance
Experimental: (§3) Human or rat hepatic microsomes (0.5 mg/mL) and 1 μM test compound were incubated in 100 mM potassium phosphate pH 7.4 buffer with 3 mM MgCl2 at 37 °C with constant shaking. After a 5 min preincubation, the reaction was initiated by addition of NADPH (1 mM). At selected time intervals (0, 3, 7, 15, 25, and 45 min), aliquots were taken and subsequently placed into a 96-well plate containing cold acetonitrile with internal standard (50 ng/mL carbamazepine). Plates were then centrifuged at 3000 rcf (4 °C) for 10 min, and the supernatant was transferred to a separate 96-well plate and diluted 1:1 with water for LC/MS/MS analysis. The in vitro half-life (T1/2, min, eq 1), intrinsic clearance (CLint, mL/min/kg, eq 2) and subsequent predicted hepatic clearance (CLhep, mL/min/kg, eq 3) was determined employing the following equations: [drawing 2] 1 where k represents the slope from linear regression analysis of the natural log percent remaining of test compound as a function of incubation time [drawing 3] 2
(§4) ^ascale-up factors: of 20 (human) or 45 (rat) [drawing 4] 3 where Qh (hepatic blood flow, mL/min/kg) is 21 (human) or 70 (rat).

rat mGlu1 = rat mGlu1 (Rattus norvegicus, UniProt P23385); assay: mGlu1 calcium mobilization PAM assay; assay type: cell-based; details: PAM, calcium flux
human mGlu1 = molecular target: T1, human mGlu1 (Homo sapiens, UniProt Q13255); assay: mGlu1 calcium mobilization (triple-add) PAM assay; assay type: cell-based; details: PAM, calcium flux, EC20 glutamate
T1 construct: expressed in transfected cells; pcDNA5/TO)
Experimental: Tetracycline-inducible human mGlu1 WT-T-REx-293 cells (Wu et al, Science 2014) were cultured at 37 °C in Dulbecco’s Modified Eagle Medium (DMEM) growth medium containing 10% Tet-tested FBS, 2 mM L-glutamine, 20 mM HEPES, 0.1 mM nonessential amino acids, 1 mM sodium pyruvate, antibiotic/antimycotic, 100 μg/mL hygromycin and 5 μg/mL blasticidin in the presence of 5% CO2. […] The mutant stable cell lines were generated in the same manner as the WT as previously described and cultured in the growth medium described above.
To determine the potency of mGlu1 PAMs in calcium assays, Ca flux was measured as previously described in ACS Chem. Bio. 2014, 9, 2334–2346. Briefly, the day before the assay, human mGlu1 WT-T-REx-293 cells were plated in black-walled, clear-bottomed, poly-D-lysine coated 96-well plates at 80,000 cells/100 μL assay medium (DMEM supplemented with 10% dialyzed FBS, 20 mM HEPES, and 1 mM sodium pyruvate) containing 50 ng/mL of tetracycline to induce mGlu1 expression. The next day, media was removed and the cells were incubated with 50 μL of 1.15 μM Fluo-4 AM dye solution prepared in assay buffer (buffer (Hank’s balanced salt solution, 20 mM HEPES, and 2.5 mM probenecid) for 45 min at 37 °C, the dye was removed and replaced with 45 μL of assay buffer. Then, calcium flux was measured using Flexstation II (Molecular Devices, Sunnyvale, CA). Compounds serially diluted at half log concentrations in DMSO were further diluted in assay buffer. The compounds or DMSO vehicle were added to cells and incubated for 2.5 min and an EC20 concentration of glutamate was added and incubated for 1 min. An ECmax concentration of glutamate was also added to cells that were incubated with DMSO vehicle to accurately calculate the EC20 calcium response. Data were normalized by subtracting the basal florescent peak before EC20 agonist addition from the maximal peak elicited by EC20 agonist and PAMs. Using GraphPad Prism 5.0, the concentration response curves were generated and the potencies of the mGlu1 PAMs were determined.

[3] = rat IV plasma:brain level (PBL) PK; assay type: in vivo
[4] = intrinsic clearance, predicted hepatic clearance; assay type: in vitro ADME, rat; details: in vitro predicted hepatic clearance
Experimental: as §3, §4

brain homogenate binding = assay type: in vitro ADME, rat; details: fraction unbound
[5] = plasma protein binding, equilibrium dialysis; assay type: in vitro ADME, rat; details: fraction unbound
Experimental: as §2

Sprague–Dawley rats = assay: catalepsy (latency to withdraw); assay type: in vivo; details: rat, positive control, 1.5 mg/kg i.p.
Experimental: In order to enable our target validation work, we first profiled PAM 19d in a rat locomotor battery to ensure that pharmacodynamic efficacy was not mistaken for gross effects on locomotion.[20] […] PK was performed in parallel to establish a PK/PD relationship.[24]
Control rats were injected with 1.5 mg/kg of haloperidol i.p. (dissolved in 8% lactic acid and taken to volume of 50 mL with sterile water) and were returned to their home cage for 90 min. Cataleptic behavior is determined by placing the forelimbs on a bar raised 6 cm above the table and recording the amount of time it takes for the rat to withdraw the forelimbs with a cutoff of 60 s. Data are expressed as mean latency to withdraw + SEM or percent inhibition of catalepsy + SEM.

T1 sequence (Q13255 19-1194): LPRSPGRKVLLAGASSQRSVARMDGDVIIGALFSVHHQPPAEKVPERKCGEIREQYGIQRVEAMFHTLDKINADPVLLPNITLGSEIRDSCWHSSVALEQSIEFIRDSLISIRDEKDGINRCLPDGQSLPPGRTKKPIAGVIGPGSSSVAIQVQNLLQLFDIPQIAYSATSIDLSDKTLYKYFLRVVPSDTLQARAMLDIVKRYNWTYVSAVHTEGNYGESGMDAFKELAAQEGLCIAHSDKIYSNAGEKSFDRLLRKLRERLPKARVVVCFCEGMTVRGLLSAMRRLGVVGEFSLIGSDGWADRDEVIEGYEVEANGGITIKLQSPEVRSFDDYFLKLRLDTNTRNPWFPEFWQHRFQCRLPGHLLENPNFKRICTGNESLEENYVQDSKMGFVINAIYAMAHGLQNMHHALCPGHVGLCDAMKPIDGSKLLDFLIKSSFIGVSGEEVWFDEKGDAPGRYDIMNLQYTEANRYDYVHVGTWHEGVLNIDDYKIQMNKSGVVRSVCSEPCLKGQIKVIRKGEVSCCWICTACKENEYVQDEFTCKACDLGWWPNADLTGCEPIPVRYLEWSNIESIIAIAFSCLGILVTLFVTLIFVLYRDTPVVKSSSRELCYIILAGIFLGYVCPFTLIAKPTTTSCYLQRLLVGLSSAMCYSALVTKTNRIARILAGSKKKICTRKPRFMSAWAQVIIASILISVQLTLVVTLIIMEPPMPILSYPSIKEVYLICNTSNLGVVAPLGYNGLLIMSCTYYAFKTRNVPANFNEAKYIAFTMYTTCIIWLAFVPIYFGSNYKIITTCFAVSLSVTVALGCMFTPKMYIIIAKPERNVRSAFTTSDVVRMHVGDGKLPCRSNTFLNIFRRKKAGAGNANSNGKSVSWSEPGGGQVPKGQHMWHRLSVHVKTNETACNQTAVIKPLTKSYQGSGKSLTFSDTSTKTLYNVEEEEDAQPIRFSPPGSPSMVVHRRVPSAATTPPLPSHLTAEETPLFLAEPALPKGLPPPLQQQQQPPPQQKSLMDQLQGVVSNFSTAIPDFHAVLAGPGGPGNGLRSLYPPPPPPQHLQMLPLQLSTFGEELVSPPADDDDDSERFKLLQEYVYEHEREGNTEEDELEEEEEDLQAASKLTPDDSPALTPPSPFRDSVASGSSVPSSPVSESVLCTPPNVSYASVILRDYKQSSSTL
rat mGlu1, sequence (P23385 19-1199): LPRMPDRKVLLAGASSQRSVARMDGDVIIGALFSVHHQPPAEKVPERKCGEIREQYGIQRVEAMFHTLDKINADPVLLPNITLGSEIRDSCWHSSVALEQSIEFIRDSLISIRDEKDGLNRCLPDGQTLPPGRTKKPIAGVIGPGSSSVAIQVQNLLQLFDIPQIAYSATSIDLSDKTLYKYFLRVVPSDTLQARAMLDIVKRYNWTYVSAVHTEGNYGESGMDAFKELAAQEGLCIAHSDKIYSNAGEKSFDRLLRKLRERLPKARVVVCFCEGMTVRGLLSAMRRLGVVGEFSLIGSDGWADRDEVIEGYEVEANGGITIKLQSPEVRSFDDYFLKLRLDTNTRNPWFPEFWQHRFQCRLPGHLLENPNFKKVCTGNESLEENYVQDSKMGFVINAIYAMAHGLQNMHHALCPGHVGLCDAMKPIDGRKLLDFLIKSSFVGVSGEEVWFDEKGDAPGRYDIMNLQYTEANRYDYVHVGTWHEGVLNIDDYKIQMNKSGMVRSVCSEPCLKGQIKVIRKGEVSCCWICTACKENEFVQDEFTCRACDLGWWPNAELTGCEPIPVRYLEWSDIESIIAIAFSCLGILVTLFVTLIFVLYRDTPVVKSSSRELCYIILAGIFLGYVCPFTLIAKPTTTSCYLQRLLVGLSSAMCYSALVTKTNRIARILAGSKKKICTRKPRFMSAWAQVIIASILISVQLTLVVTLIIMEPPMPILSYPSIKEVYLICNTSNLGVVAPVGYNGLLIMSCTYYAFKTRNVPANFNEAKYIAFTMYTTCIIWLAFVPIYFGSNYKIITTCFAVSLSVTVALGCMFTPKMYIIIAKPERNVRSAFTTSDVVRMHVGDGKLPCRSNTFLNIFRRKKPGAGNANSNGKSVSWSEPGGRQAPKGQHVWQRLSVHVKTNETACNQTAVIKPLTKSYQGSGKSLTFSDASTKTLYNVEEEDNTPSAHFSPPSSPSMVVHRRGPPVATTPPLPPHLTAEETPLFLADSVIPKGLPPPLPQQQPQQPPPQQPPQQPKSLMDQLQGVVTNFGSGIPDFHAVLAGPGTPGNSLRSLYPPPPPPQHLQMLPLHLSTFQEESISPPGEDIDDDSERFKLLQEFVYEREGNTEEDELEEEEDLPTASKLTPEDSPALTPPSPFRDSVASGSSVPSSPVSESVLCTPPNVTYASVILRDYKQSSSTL
dog mGlu1, sequence (A0A8I3NTE8 30-1195): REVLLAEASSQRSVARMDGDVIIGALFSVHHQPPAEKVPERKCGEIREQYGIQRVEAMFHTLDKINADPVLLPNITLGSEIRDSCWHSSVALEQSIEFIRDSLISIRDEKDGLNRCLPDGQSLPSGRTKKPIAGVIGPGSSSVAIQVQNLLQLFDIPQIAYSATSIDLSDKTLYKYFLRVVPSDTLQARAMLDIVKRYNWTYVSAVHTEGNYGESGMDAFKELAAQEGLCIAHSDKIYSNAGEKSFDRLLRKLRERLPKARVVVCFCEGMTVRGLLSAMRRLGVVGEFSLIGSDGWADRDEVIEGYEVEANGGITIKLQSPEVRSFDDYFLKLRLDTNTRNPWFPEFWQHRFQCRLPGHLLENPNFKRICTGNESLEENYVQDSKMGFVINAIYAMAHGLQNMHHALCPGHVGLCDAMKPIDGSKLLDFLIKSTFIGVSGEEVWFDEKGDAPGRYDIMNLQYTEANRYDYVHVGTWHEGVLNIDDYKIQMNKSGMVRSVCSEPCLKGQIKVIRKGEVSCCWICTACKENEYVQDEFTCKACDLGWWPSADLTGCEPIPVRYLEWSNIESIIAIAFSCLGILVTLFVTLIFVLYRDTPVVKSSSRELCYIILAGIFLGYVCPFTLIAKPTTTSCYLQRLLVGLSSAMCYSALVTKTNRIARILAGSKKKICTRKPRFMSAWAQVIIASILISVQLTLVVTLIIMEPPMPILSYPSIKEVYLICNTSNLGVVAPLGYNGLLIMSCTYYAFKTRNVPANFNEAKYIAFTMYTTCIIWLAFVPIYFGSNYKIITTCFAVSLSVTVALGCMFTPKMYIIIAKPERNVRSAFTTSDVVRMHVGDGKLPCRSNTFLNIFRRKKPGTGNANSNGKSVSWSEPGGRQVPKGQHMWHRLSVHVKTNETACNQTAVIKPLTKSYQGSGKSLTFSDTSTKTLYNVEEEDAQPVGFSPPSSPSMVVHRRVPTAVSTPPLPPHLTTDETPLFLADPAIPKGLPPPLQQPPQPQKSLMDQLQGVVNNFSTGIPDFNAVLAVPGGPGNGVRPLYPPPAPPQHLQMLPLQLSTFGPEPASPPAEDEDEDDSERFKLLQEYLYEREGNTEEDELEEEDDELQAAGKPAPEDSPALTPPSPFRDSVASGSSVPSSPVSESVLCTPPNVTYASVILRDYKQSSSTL

SMILES: O=C(Nc1ccc(N2C(=O)c3cccc(Cl)c3C2=O)c(Cl)c1)c1ncccc1Cl [Compound 2]
EC50 (hmGlu1): 390 nM | selectivity vs. mGlu4 (mGlu4): ~ 30 fold

SMILES: Cc1ccoc1C(=O)Nc1ccc(N2C(=O)c3cccc(F)c3C2=O)c(Cl)c1 [Compound 3]
EC50 (hmGlu1): 32 nM | selectivity vs. mGlu4 (mGlu4): ~ 35 fold

EC50 (dog mGlu1): 400 nM | half-life (IV dog PK): 16.8 h | clearance (IV dog PK; read-out: CLp): 14 mL/min/kg | Vd (IV dog PK; read-out: Vss): 12 L/kg | C0 (IV dog PK; read-out: C0 exposure, total): 1100 nM | C0 (IV dog PK; read-out: C0 exposure, unbound): 36.4 nM
SMILES: Cc1ccc2c(c1)C(=O)N(c1ccc(NC(=O)c3occc3C)c(F)c1)C2=O [Compound 4, reference compound]
selectivity vs. mGlu4 (mGlu4): ~ 790 fold | adverse events (AEs) in dog (male beagles): no AEs

SMILES: Cc1ccoc1C(=O)Nc1ccc(N2Cc3c(Cl)cccc3C2=O)c(Cl)c1 [Compound 5]
EC50 (hmGlu1): 211 nM | selectivity vs. mGlu4 (mGlu4): ~ 50 fold

human fuplasma [1]: 0.036 | CLhep, human [2]: 19.8 mL/min/kg | EC50 (rat mGlu1): 109 nM | rat mGlu1 Glumax (rat mGlu1): 92% | EC50 (human mGlu1): 51 nM | human mGlu1 Glumax (human mGlu1): 53% | Kp at 15 min ([3]; Sprague-Dawley, 0.25 mg/kg/compound, rat IV PBL, brain:plasma): 0.27 | clearance ([3]; Sprague-Dawley, plasma, intravenous, rat PK PBL experiment, read-out: CLp): 67.2 mL/min/kg | MRT ([3]; rat PK PBL experiment): 0.355 h | t1/2 ([3]; rat PK PBL experiment): 0.397 h | CLhep, rat [4]: 63.7 mL/min/kg | rat fubrain (brain homogenate binding): 0.021 | rat fuplasma [5]: 0.022
SMILES: O=C(NCc1cnn2ccccc12)c1cc(-c2ccco2)ccc1Cl [Compound 9k, 2-Chloro-5-(furan-2-yl)-N-(pyrazolo[1,5-a]pyridin-3-ylmethyl)benzamide]

SMILES: O=C(CCCN1CCC(O)(c2ccc(Cl)cc2)CC1)c1ccc(F)cc1 [haloperidol, reference compound]
catalepsy (Sprague–Dawley rats): induced profound catalepsy
